Results: US12672653B2, “Pest management” (priority 2017, dated 2026)
Values after ≈ are worked out from the molar mass of the structure shown. Where two headings read alike, the source gives them in different places.

Key:
sodium channels = test: Sodium conductance in the DRG (voltage clamp recording); type: cell-based, Sprague-Dawley rats; details: for Normalised Na^+ Conductance Amplitude, Mean: Control = 100
Method: (§1) Dorsal root ganglion (DRG) cells were obtained from young adult male Sprague-Dawley rats weighing 220-250 g. The rats were housed in groups of 4 in an air conditioned room on a 12 hour light/dark cycle with food and water available ad libitum.
(§2) Animals were humanely killed and the lower thoracic and upper lumbar region DRG removed and stored in chilled phosphate buffered saline (PBS). The DRG were carefully trimmed and then digested using 2 mg/mL trypsin (type XII-S) and 2 mg/mL collagenase (type XI), freshly made up in PBS, for 45-60 mins in a shaking water bath at 37° C. Subsequent to extensive washing with PBS and then plating medium (PM; 50:50 mix of DMEM/Hams F12, supplemented with 10% foetal bovine serum, 100 U/mL penicillin and 100 μg/mL streptomycin), careful trituration of the DRG was carried out using sterile fire polished glass pipettes of decreasing diameter and the cells were plated on coated glass coverslips (BD Biosciences, BD Biocoat, poly-D-Lysine), contained in 35 mm tissue culture dishes so that the cells could be easily transferred to the recording chamber mounted on an Olympus IX51 […] microscope for electrophysiological recording. Cells were incubated under standard tissue culture conditions (36° C. in a humidified atmosphere of 5% CO2, 95% air) and were used within 48-72 hours of plating.
(§3) Whole-cell patch-clamp recordings were conducted at room temperature ([…]) using an Axopatch 200B amplifier (Axon Instruments Inc., USA) with 3-7 MΩ electrodes, depending on the patch success rate and recording quality. Data were filtered and digitized appropriately. Current-clamp recordings were performed with pipette solution of the following composition: 140 mM KCl, 0.5 mM EGTA, 5 mM HEPES, 3 mM Mg-ATP and 3 mM Na-GTP (pH 7.3), adjusted to 310 mOsm/L with glucose. The bathing solution contained: 140 mM NaCl, 3 mM KCl, 2 mM MgCl2, 2 mM CaCl2, and 10 mM HEPES (pH 7.3), adjusted to 315 mOsm/L with glucose. Passive membrane properties (e.g. resting membrane potential (Vm)) were monitored during the first few minutes from establishing whole-cell access and periodically during recording. Evoked potential recordings commenced 3-5 minutes after establishing whole-cell configuration.
(§4) Flavesone test solutions were prepared fresh from a stock solution (96.7% w/w) on the day of recording. 100 μL of flavesone composition was mixed with 100 µL of Tween 80 and diluted to 10 mL in artificial cerebrospinal fluid (aCSF) to give a final flavesone concentration of 1%. The pH of the 1% solution was adjusted to 7.3 with 1M NaOH and diluted to 0.5% and 0.25% flavesone concentration with aCSF containing 1% Tween 80 immediately prior to use. Test compounds were applied using a DAD-16VC fast perfusion system (ALA Scientific Instruments, USA) and compared to the results gathered using control flow. The control was aSCF with 1% Tween 80.
(§5) Comparison samples of permethrin were prepared as 100 μM permethrin in […] (DMSO).
(§6) All analysis was conducted using Clampfit (MDS Analytical Technologies) and Excel (Microsoft) software. Statistical comparisons between groups were performed using the Student's t-test with P<0.05 taken to identify a significant difference.
Pyrethroids such as permethrin are known to be sodium channel modulators. Analysis of the effects of flavesone and permethrin on sodium conductance in the DRG was examined. […]

Myzus persicae [1] = details: 96 hours exposure; first bioassay dose-response curve
Aedes aegypti L3 larvae = test: Mosquito larval topical dose-mortality assay (synergism); type: in vivo; details: for LC50: Aedes aegypti, topical
Method: The efficacy of a flavesone formulation against mosquito larvae was investigated together with investigation of the potential for synergistic action of flavesone and one or more technical grade insecticides. Dose-mortality assays were performed to evaluate the toxicity of technical grade insecticide, here the synthetic pyrethroid (SP) permethrin at various concentrations (minimum five dose points) alone and co-administered with flavesone at single point dose was performed. Assays were conducted using L3 larvae of the Liverpool (SP susceptible) and Puerto Rico (SP resistant) strains of the yellow fever mosquito, Aedes aegypti maintained in continuous culture at Purdue University, US. Larvae were transferred to a 24 well tissue plate using a wide-bore plastic transfer pipette, 5 larvae per well. The water was gently removed from the well with a 1 mL pipette and an equivalent amount of ddH2O was added. The appropriate volume of test compound was added to each of the four replicate wells per treatment and the plate gently swirled to ensure uniform mixing. The plate was placed in a test or growth chamber under constant conditions of 22-25° C. and about 75-85% relative humidity on a 12 h light/12 hr dark cycle. Assays were scored for the phenotypic endpoint of death/paralysis at 24, 48 and 72 hours post exposure. Each assay incorporated a positive (flavesone) and negative (vehicle only) control, and minimum of four technical replicates per dose of test chemistry. The data reported here represent three biological replicates.
Pilot assays were first employed to determine dose of flavesone (LC50, LC25 or LC10 dose as determined in previous dose-mortality tests) appropriate for synergism assays. […] The Synergistic Ratio (SR) for insecticide+flavesone combination is also shown and the synergistic action evaluated as per the published studies of Ahmed and Matsumura (2012, Journal of Medical Entomology 49(6):1405-10) and Ahmed and Vogel (2015, Acta Tropica 155:1-5).

Myzus persicae [2] = test: whole plant or invertebrate; details: foliar
[3] = tested on: Dorsal root ganglion (DRG) cells; test: Whole-cell patch-clamp current-clamp recording of dorsal root ganglion cells (membrane potential, action potentials); type: cell-based, Sprague-Dawley rats
Method: as §1, §2, §3, §4, §5, §6

Musca domestica = test: Knockdown and mortality of houseflies exposed to treated tiles; type: in vivo
Method: Each formulation was filled into a hand-held pump sprayer. The treatments were applied to tiles from a distance of 20 cm. The tile was placed on a 0.5 m^2 grid and the entire 0.5 m^2 was sprayed, including the tile, at a rate of 50 mL/m^2. To ensure the correct volume was applied, the pump sprayer was weighed before and after spraying.
The tiles were left for two hours post-treatment to allow the formulation to dry on the tile, before evaluation started.
A control tile that was not treated with any formulation (untreated) was also used.
Ten mixed sex Musca domestica houseflies were placed in a plastic petri dish using a powered aspirator. The petri dish placed over a treated or control tile surface. The petri dish was perforated for ventilation with small holes and a cotton wool plug soaked in sugar solution provided moisture and plugged the insect introduction hole in the petri dish.
The houseflies were constantly exposed to a treated or untreated tile surface. The exposure took place at a temperature of 22±2° C. and about 50% relative humidity (RH).
After 30 minutes exposure, a piece of paper was placed over the tile surface to prevent contact of the houseflies with the treated or untreated tile. The houseflies were held at 22±2° C. and about 50% RH for 24 hours.
Housefly knockdown was noted 15 minutes and 30 minutes after beginning of exposure and 1, 2, 3 and 4 hours after initial exposure.
The above experiment was repeated four times to give five replicates. No statistical analysis was done.

[4] = voltage clamp recording configuration
[5] = 0.5% flavesone, Table 3, permethrin experiment

Structure (SMILES): CC(C)C(=O)C1C(=O)C(C)(C)C(=O)C(C)(C)C1=O [Flavesone, 1-isobutyroyl-3,3,5,5-tetramethylcyclohexan-2,4,6-trione]
- effect on sodium channels (sodium channels): no effect on sodium channels
- area under the curve (AUC) (sodium channels; 0.5% flavesone, 1% flavesone versus control and wash): no significant difference
- Normalised Na^+ Conductance Amplitude, Mean (sodium channels; 0.5% flavesone): 84.65
- Normalised Na^+ Conductance Amplitude, Mean (sodium channels; 1% flavesone): 77.56
- sodium conductance amplitude (sodium channels; flavesone, Table 10): no significant effect
- channel inactivation/deactivation (sodium channels; [4]): no effect
- reduction of sodium channel conductance (sodium channels; voltage clamp recording configuration, not significantly different to control): approximately 20%
- LC15 (Myzus persicae [1]): 1200 mg a.i./L
- LC30 (Myzus persicae [1]): 1800 mg a.i./L
- larval phenotype (Aedes aegypti L3 larvae; addition of flavesone): unambiguous “lethal” larval phenotype
- mortality at 1200 µg/mL (Myzus persicae [2]; 96 h): 10.9%
- mortality at 1800 µg/mL (Myzus persicae [2]; 96 h): 25.7%
- LC50 (Myzus persicae [2]; read-out: LC50 (95% CI's)): 2730 µg/mL (≈ 10.8 mM)
- effect on potassium channels [3]: activates one or more potassium channels
- input resistance in DRG neurones [3]: reduced input resistance
- Vm (mV) Mean ([3]; 0.25% flavesone): −71.51 mV
- Δ Vm (mV) Mean ([3]; 0.25% flavesone): −7.80 mV
- Normalised No. of Action Potentials @ Vh −50 mV, Mean ([3]; 0.5% flavesone, Control = 100): 74.0
- Vm (mV) Mean ([3]; 0.5% flavesone, Table 2): −73.54 mV
- Δ Vm (mV) Mean ([3]; 0.5% flavesone, Table 2): −18.15 mV
- Vm (mV) Mean [3, 5]: −80.56 mV
- Δ Vm (mV) Mean [3, 5]: −19.63 mV
- Normalised Action Potentials Amplitude, Mean ([3]; 0.5% flavesone, Table 5, Control = 100): 77.72
- Normalised Action Potentials Amplitude, Mean ([3]; 0.5% flavesone, Table 6, Control = 100): 90.17
- Vm (mV) Mean ([3]; 1% flavesone): −83.75 mV
- Δ Vm (mV) Mean ([3]; 1% flavesone): −29.82 mV
- Normalised No. of Action Potentials @ Vh −50 mV, Mean ([3]; 1% flavesone, Control = 100): 65.8
- Normalised Action Potentials Amplitude, Mean ([3]; 1% flavesone, Table 5, Control = 100): 28.35
- Normalised Action Potentials Amplitude, Mean ([3]; 1% flavesone, Table 6, Control = 100): 91.50
- number of action potentials ([3]; flavesone, Table 4): slightly reduced
- amplitude of the action potentials ([3]; flavesone, Table 5): reduced
- action potential threshold ([3]; flavesone, Table 6): no significant effect
- resting potential from current-voltage relations ([3]; in the presence of flavesone): about −84 mV
- mean resting potential (Vm) ([3]; reduced from about −62 mV by flavesone): about −84 mV
- mortality (Musca domestica; both rates (200 mg/mL & 100 mg/mL), 24 hours post initial exposure): 100%
- knockdown of houseflies (Musca domestica; rates of 200 mg/mL & 100 mg/mL, after 15 minutes exposure): 100%

Structure (SMILES): CC1(C)C(C=C(Cl)Cl)C1C(=O)OCc1cccc(Oc2ccccc2)c1 (centres unmarked) [Permethrin]
- effect on sodium channels (sodium channels): had an effect on sodium channels
- Normalised Na^+ Conductance Amplitude, Mean (sodium channels; 100 μM permethrin, Table 11): 103.47
- Normalised Na^+ Conductance Amplitude, Mean (sodium channels; 100 μM permethrin, Table 12): 282.56
- sodium conductance amplitude (sodium channels; permethrin, Table 11): little effect
- area under the curve (AUC) (sodium channels; permethrin, Table 12): significant increase
- channel inactivation/deactivation (sodium channels; [4]): significantly prolonged channel inactivation
- LC50 (Aedes aegypti L3 larvae; 24 h, read-out: LC50 (ng/ml) (95% CL), Permethrin Dose-Mortality, L3 larvae, Liverpool (LVP, SP susceptible) strain, 24 hours post exposure, Permethrin alone): 26.7 ng/mL
- LC50 (Aedes aegypti L3 larvae; 24 h, read-out: LC50 (ng/ml) (95% CL), Permethrin Dose-Mortality, L3 larvae, Puerto Rico (PRS, SP resistant) strain, 24 hours post exposure, Permethrin alone): 280 ng/mL
- LC50 (Aedes aegypti L3 larvae; 48 h, read-out: LC50 (ng/ml) (95% CL), Permethrin Dose-Mortality, L3 larvae, Liverpool (LVP, SP susceptible) strain, 48 hours post exposure, Permethrin alone): 24.3 ng/mL
- LC50 (Aedes aegypti L3 larvae; 48 h, read-out: LC50 (ng/ml) (95% CL), Permethrin Dose-Mortality, L3 larvae, Puerto Rico (PRS, SP resistant) strain, 48 hours post exposure, Permethrin alone): 231 ng/mL
- level of resistance to Permethrin (Aedes aegypti L3 larvae; Puerto Rico strain larvae as compared to Liverpool strain larvae): approximately 10 fold
- effect on potassium channels [3]: no effect on potassium channels
- input resistance in DRG neurones [3]: no effect on the input resistance
- effect on mean resting potential (Vm) ([3]; 100 μM): no effect
- Vm (mV) Mean ([3]; 100 μM permethrin): −61.48 mV
- Δ Vm (mV) Mean ([3]; 100 μM permethrin): −08 mV
- DRG Normalised No. of Action Potentials @ Vh −50 mV, Mean ([3]; 100 μM permethrin, Control = 100): 17.95
- Normalised Action Potentials Amplitude, Mean ([3]; 100 μM permethrin, Table 8, Control = 100): 99.46
- Normalised Action Potentials Amplitude, Mean ([3]; 100 μM permethrin, Table 9, Control = 100): 100.20
- number of action potentials ([3]; permethrin 100 μM, Table 7): significantly reduced
- amplitude of the actions ([3]; permethrin 100 μM, Table 8): no effect
- action potential threshold ([3]; permethrin 100 μM, Table 9): no effect
- mortality (Musca domestica; 1.25 mg/mL rate, 24 hours post-initial exposure): 62%
- knockdown of houseflies (Musca domestica; 2.5 mg/mL and 1.25 mg/mL, any assessment time): < 100%
- mortality (Musca domestica; 2.5 mg/mL rate, 24 hours post-initial exposure): 72%
- knockdown of houseflies (Musca domestica; both rates (2.5 and 1.25 mg/mL), 1-hour post initial exposure): 94%
